Test results reported in PubChem BioAssay AID2060902 (Molecular Pharmacology Branch, DTP, NCI, 2025).
Several values for one entry are separate records, joined by “and”; a condition that tells them apart may be missing. Identical values can stand only once.

Test system: 485368-065-R3-J5-PDC spheroids with HUVEC/MSC, viability
Test: Anticancer human tumor 485368-065-R3-J5-PDC patient-derived pancreatic carcinoma cell line growth inhibition [RAS]
Conditions: for viability, T/C: stronger effect = lower value
Excerpt: RAS pathway inhibitors in Combinations in Complex Spheroids
A high-throughput screen of multi-cell type tumor spheroids was designed to identify active combinations of RAS pathway inhibitors and targeted small molecules. Complex spheroids include a stromal component modeled by human endothelial cells (HUVEC) and fibroblasts modeled by human mesenchymal stem cells (MSCs). The concentration ranges selected for each drug and investigational agent were based upon clinically achievable concentrations if the clinical Cmax of the agent was known.
Compounds. The drugs and investigational agents: abemaciclib (NSC768073), cobimetinib (NSC768068), divarasib (GDC6063, NSC841802), docetaxel (NSC628503), GDC-1971 (RLY-1971, NSC841576), gemcitabine (NSC613327), inavolisib (NSC800729), ipatasertib (NSC767898), KB-0742 (NSC834161), MRTX-1133 (NSC836407), osimertinib (NSC779217), RMC-4630 (NSC839698), RMC-6236 (NSC851965), RMC-6291 (NSC852671), Ro-3306 (NSC812927), sapanisertib (NSC764658), SN-38 (NSC673596), staurosporine (NSC755774), SY5609 (NSC837396), and tovorafenib (DAY101, NSC766906), were obtained from the National Cancer Institute (NCI) Developmental Therapeutics Program Chemical Repository. The FDA-approved anticancer drug set is available from the NCI Developmental Therapeutics Program. […] The stock solutions were prepared in dimethyl sulfoxide (DMSO, Sigma-Aldrich, St. Louis, MO, cat. D2650) at 800-fold the tested concentration and stored at -70 degrees C prior to their use. All drugs and investigational agents were tested over a range starting from a high concentration at or near the clinical Cmax and decreasing in half-log increments. If the clinical Cmax for an agent had not been determined, the highest concentration tested was 10 microM.
Cell Culture. All cells were maintained in an incubator at 37 degrees C and 5% CO2 with 95% humidity. The PDC lines were cultured according to standard operating procedures established by the NCI PDMR. All PDCs were thawed and cultured in Matrigel-coated flasks prepared with a working solution of 1X Ham's F-12 nutrient mix, without supplementation (Invitrogen, Waltham, MA, cat. 11765054), 100 U/mL penicillin-streptomycin (Invitrogen, cat. 15140122), and 2.5% Matrigel (Corning Inc., Corning, NY, cat. 354248) for the first three passages. The 362531-283-R-J2-PDC and 782815-120-R-J1-PDC lines were cultured in 6C/Colon 1B media, which includes advanced DMEM/F-12 (Thermo Fisher Scientific, cat. 12634028), 10 mM HEPES (Thermo Fisher Scientific, cat. 15630080), 1X GlutaMAX supplement (Thermo Fisher Scientific, cat. 35050061), 0.1 mg/mL primocin (InvivoGen, San Diego, CA, cat. ant-pm-2), 10% defined fetal bovine serum, heat inactivated (HyClone Laboratories Inc., Logan, UT, cat. SH30070.03HI), 50% L-WRN conditioned media (ATCC, cat. CRL-3276), 1.25 mM N-Acetyl-L-cysteine (Sigma-Aldrich, cat. A9165), 10 mM nicotinamide (Sigma-Aldrich, cat. N0636), 1X B-27 supplement (Thermo Fisher Scientific, cat. 17504044), 1X N-2 supplement (Thermo Fisher Scientific, cat. 17502048), 50 ng/mL human EGF (Thermo Fisher Scientific, cat. PHG0311), and 10 microM Y-27632 dihydrochloride (Tocris Bioscience, cat. 1254). The K12877-001-R-J1-PDC line was cultured in 6I media, which includes all 6C/Colon 1B media plus 10 ng/mL human FGF-10 (PeproTech, cat. 100-26), 1 ng/mL human FGF-2 (PeproTech, cat. 100-18B), 1 µM prostaglandin E2 (Tocris Bioscience, cat. 2296), […] hydrocortisone (Sigma-Aldrich, cat. H4001), and […] bovine insulin (Sigma-Aldrich, cat. I6634). The K86415-001-R-J1-PDC line was cultured in 6D media, which includes all 6C/Colon 1B media components minus the L-WRN conditioned media. The 485176-168-R4-J1-PDC was cultured in PANC media, which includes all 6C/Colon 1B media plus 100 ng/mL human FGF-10 (PeproTech, cat. 100-26), 500 nM SB-431542 (Selleckchem, cat. S1067), and 10 nM gastrin (Tocris Bioscience, cat. 3006). […]
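Also: spheroids exposed to agents for seven days before readout.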

Compound: CC(=O)OC12COC1CC(O)C1(C)C(=O)C(O)C3=C(C)C(OC(=O)C(O)C(NC(=O)OC(C)(C)C)c4ccccc4)CC(O)(C(OC(=O)c4ccccc4)C21)C3(C)C (stereo not given)
- viability, T/C (compound 0.0316 µM): 16.4% [middle of 4 runs]
- viability, T/C (compound 0.1 µM): 15.4% [middle of 4 runs]
- viability, T/C (compound 0.316 µM): 14% [middle of 4 runs]
- viability, T/C (compound 1 µM): 16.1% [middle of 4 runs]
- viability, T/C (compound 3.16 µM): 19.1% [middle of 4 runs]
- viability, T/C (compound 10 µM): 29.6% [middle of 4 runs]
- IC50 (curve of compound): < 31.6 nM

Compound: CC(C)NCC(C(=O)N1CCN(c2ncnc3c2C(C)CC3O)CC1)c1ccc(Cl)cc1 (stereo not given)
- viability, T/C (compound 0.0316 µM): 104% and 101% (2×) and 98.3%
- viability, T/C (compound 0.1 µM): 100% [middle of 4 runs]
- viability, T/C (compound 0.316 µM): 94.8% [middle of 4 runs]
- viability, T/C (compound 1 µM): 86.2% [middle of 4 runs]
- viability, T/C (compound 3.16 µM): 77.1% [middle of 4 runs]
- viability, T/C (compound 10 µM): 52.3% [middle of 4 runs]
- IC50 (curve of compound): > 10000 nM and 8610 nM

Compound: CC1(O)CCCC1n1c(=O)c(C(F)F)cc2cnc(NC3CCN(S(C)(=O)=O)CC3)nc21 (stereo not given)
- viability, T/C (compound 0.0316 µM): 104% [middle of 4 runs]
- viability, T/C (compound 0.1 µM): 74% [middle of 4 runs]
- viability, T/C (compound 0.316 µM): 50.7% [middle of 4 runs]
- viability, T/C (compound 1 µM): 42.3% (2×) and 46.1% and 41.8%
- viability, T/C (compound 3.16 µM): 47.1% [middle of 4 runs]
- viability, T/C (compound 10 µM): 19.6% [middle of 4 runs]
- IC50 (curve of compound): 469 nM [middle of 4 runs]

Compound: CCC(CC)c1cc(NC2CCC(N)C2)n2nccc2n1 (stereo not given)
- viability, T/C (compound 0.0316 µM): 106% [middle of 4 runs]
- viability, T/C (compound 0.1 µM): 99.2% [middle of 4 runs]
- viability, T/C (compound 0.316 µM): 115% and 105% (2×) and 109%
- viability, T/C (compound 3.16 µM): 4.93% [middle of 4 runs]
- viability, T/C (compound 10 µM): 8.61% [middle of 4 runs]
- IC50 (curve of compound): 1.96 µM [middle of 4 runs]

Compound: C[C@@H](NC(=O)c1ncnc(N)c1Cl)c1ncc(C(=O)Nc2cc(C(F)(F)F)c(Cl)cn2)s1
- viability, T/C (compound 0.0316 µM): 114% (3×) and 115%
- viability, T/C (compound 0.1 µM): 104% [middle of 4 runs]
- viability, T/C (compound 0.316 µM): 109% [middle of 4 runs]
- viability, T/C (compound 1 µM): 93.4% and 96.5% (2×) and 92.5%
- viability, T/C (compound 3.16 µM): 108% [middle of 4 runs]
- viability, T/C (compound 10 µM): 82.4% [middle of 4 runs]
- IC50 (curve of compound): > 10000 nM

Compound: Cc1nc(N2CCC3(CC2)COC(C)C3N)c(CO)nc1Sc1ccnc(N)c1Cl (stereo not given)
- viability, T/C (compound 0.0316 µM): 102% [middle of 4 runs]
- viability, T/C (compound 0.1 µM): 93.5% [middle of 4 runs]
- viability, T/C (compound 0.316 µM): 88.9% [middle of 4 runs]
- viability, T/C (compound 1 µM): 72.8% [middle of 4 runs]
- IC50 (curve of compound): > 10000 nM

Compound: NC1c2ccccc2OC12CCN(c1cnc3c(N4CCCc5ncccc54)n[nH]c3n1)CC2 (stereo not given)
- viability, T/C (compound 0.0316 µM): 92.8% [middle of 4 runs]
- viability, T/C (compound 0.1 µM): 82.1% [middle of 4 runs]
- viability, T/C (compound 1 µM): 70.1% [middle of 4 runs]
- IC50 (curve of compound): > 10000 nM

Compound: C=CC(=O)Nc1cc(Nc2nccc(-c3cn(C)c4ccccc34)n2)c(OC)cc1N(C)CCN(C)C + C#Cc1c(F)ccc2cc(O)cc(-c3ncc4c(N5CC6CCC(C5)N6)nc(OCC56CCCN5CC(F)C6)nc4c3F)c12
- IC50 (curve of first compound, second compound 0.0316 µM): > 1000 nM
- IC50 (curve of first compound, second compound 0.1 µM): > 1000 nM
- IC50 (curve of first compound, second compound 0.316 µM): > 1000 nM
- IC50 (curve of first compound, second compound 1 µM): > 1000 nM
- IC50 (curve of first compound, second compound 3.16 µM): > 1000 nM
- IC50 (curve of first compound, second compound 10 µM): < 3.16 nM
- viability, T/C (second compound 0.0316 µM, first compound 0.00316 µM): 103%
- viability, T/C (second compound 0.0316 µM, first compound 0.01 µM): 101%
- viability, T/C (second compound 0.0316 µM, first compound 0.0316 µM): 106%
- viability, T/C (second compound 0.0316 µM, first compound 0.1 µM): 104%
- viability, T/C (second compound 0.0316 µM, first compound 0.316 µM): 101%
- viability, T/C (second compound 0.0316 µM, first compound 1 µM): 89.7%
- viability, T/C (second compound 0.1 µM, first compound 0.00316 µM): 97%
- viability, T/C (second compound 0.1 µM, first compound 0.01 µM): 95.8%
- viability, T/C (second compound 0.1 µM, first compound 0.0316 µM): 95.8%
- viability, T/C (second compound 0.1 µM, first compound 0.1 µM): 108%
- viability, T/C (second compound 0.1 µM, first compound 0.316 µM): 108%
- viability, T/C (second compound 0.1 µM, first compound 1 µM): 96.2%
- viability, T/C (second compound 0.316 µM, first compound 0.00316 µM): 107%
- viability, T/C (second compound 0.316 µM, first compound 0.01 µM): 97.3%
- viability, T/C (second compound 0.316 µM, first compound 0.0316 µM): 96.1%
- viability, T/C (second compound 0.316 µM, first compound 0.1 µM): 103%
- viability, T/C (second compound 0.316 µM, first compound 0.316 µM): 101%
- viability, T/C (second compound 0.316 µM, first compound 1 µM): 85.5%
- viability, T/C (second compound 1 µM, first compound 0.00316 µM): 106%
- viability, T/C (second compound 1 µM, first compound 0.01 µM): 98.9%
- viability, T/C (second compound 1 µM, first compound 0.0316 µM): 100%
- viability, T/C (second compound 1 µM, first compound 0.1 µM): 97.3%
- viability, T/C (second compound 1 µM, first compound 0.316 µM): 83.3%
- viability, T/C (second compound 1 µM, first compound 1 µM): 74.6%
- viability, T/C (second compound 3.16 µM, first compound 0.00316 µM): 78%
- viability, T/C (second compound 3.16 µM, first compound 0.01 µM): 83.6%
- viability, T/C (second compound 3.16 µM, first compound 0.0316 µM): 72.4%
- viability, T/C (second compound 3.16 µM, first compound 0.1 µM): 67.6%
- viability, T/C (second compound 3.16 µM, first compound 0.316 µM): 63.3%
- viability, T/C (second compound 3.16 µM, first compound 1 µM): 49.8%
- viability, T/C (second compound 10 µM, first compound 0.00316 µM): 48%
- viability, T/C (second compound 10 µM, first compound 0.01 µM): 43.7%
- viability, T/C (second compound 10 µM, first compound 0.0316 µM): 37%
- viability, T/C (second compound 10 µM, first compound 0.1 µM): 37.3%
- viability, T/C (second compound 10 µM, first compound 0.316 µM): 28.6%
- viability, T/C (second compound 10 µM, first compound 1 µM): 30.1%
